The results in this text go back to US20230292776A1, “GAS PHASE TREATMENT OF PRODUCE” (priority 2022, published 2023).

Series [1] relates to Penicillium digitatum (Pd). The series can be described thus: Antifungal activity of vapor against Penicillium digitatum (Pd) in wounded, infected mandarins. As to conditions: for effect on Pd mold: Example 5, 125 μL, assessed after 6 days. In kind it is in vivo. Here is the method:
(§1) Example 1. The antifungal activity of diallyl disulfide (DADS) vapor against Penicillium digitatum (Pd) was tested in mandarins. All samples were wounded by puncturing with a screw and infected by dispensing 1000 Pd spores suspended in 10 μL of water into each wound. The test groups consisted of mandarins that were: untreated; dipped in a solution of 1 g/L of imazalil; and exposed for 72 hours to the vapor of 3 mL of DADS in a Petri dish.
(§2) Example 2. The antifungal activity of allyl isothiocyanate (AITC) and DADS vapor was tested against Pd and Penicillium italicum (Pi) in mandarins. All samples were wounded by puncturing with a screw. Mandarins were infected by dispensing either 1000 Pd spores or 1000 Pi spores suspended in 10 μL into the wound. The test groups consisted of mandarins that were: uninfected and untreated; uninfected and treated by dipping in a solution of 1 g/L of imazalil; infected with Pd and untreated; infected with Pd and exposed to AITC; infected with Pd and exposed to DADS; infected with Pi and untreated; infected with Pi and exposed to AITC; and infected with Pi and exposed to DADS. Exposure to AITC or DADS consisted of exposing the mandarins for 72 hours to the vapor of 3 mL of the respective compound dispensed in a Petri dish.
(§3) Example 3. The antifungal activity of a reduced dose of AITC vapor against Pd in mandarins was tested. All samples were wounded by puncturing with a screw. Mandarins were infected by dispensing 1000 Pd spores suspended in 10 μL of water into each wound. The test groups consisted of mandarins that were: uninfected and untreated; infected with Pd and untreated; and exposed to the vapor of 500 μL of AITC in a Petri dish for 72 hours.
Example 4. The antifungal activity of a range of AITC vapor concentrations was tested against Pd in mandarins. All mandarins were wounded by puncturing with a screw and infected by dispensing 1000 Pd spores suspended in 10 μL of water in each wound. The fruit was then placed in an airtight container, a range of AITC volumes were disposed onto a Whatman filter paper disc, the disc was suspended in front of a battery-powered fan, and the container closed for 18 hours. The mandarins were then left at ambient temperature and high humidity for 6 days. The test groups were mandarins that were infected and untreated, and infected and treated with 62.5 μL 125 μL 250 μL and 500 μL on the filter paper disc. […] FIG. 6 is a bar graph showing incidence (% infected) for the test groups.
Example 5. The antifungal activity of a range of AITC vapor exposure times was tested to determine the effects against Pd in mandarins. All samples were wounded by puncturing with a screw. Mandarins were infected by dispensing 1000 Pd spores suspended in 10 μL of water in the wound. The fruit was then placed in an airtight container, 125 μL of AITC was dispensed onto a Whatman filter paper disc, the disc suspended in front of a battery-powered fan, and the container closed for 15 minutes to 2 hours. The test groups were then left at ambient temperature, high humidity, and assessed for Pd mold after 6 days. The test groups consisted of mandarins that were: uninfected and untreated; infected and untreated; infected and treated with 0.5 g/L imazalil; infected, treated with 125 μL of AITC on the filter paper, and exposed to the vapor for 15 minutes, 30 minutes, 1 hour, and 2 hours.

The subject of another series is mandarins. The series can be described thus: Visible appearance of vapor-treated mandarins. The series is classed as in vivo, mandarin. Here is the method: as §1
as §2, with “dish. […] DADS vapor reduced the incidence of Pd mold by 85% and Pi mold by 30% compared to the respective untreated/infected test groups. […] Both AITC and DADS were effective at preventing fungal growth. The inhibition from AITC was approximately 100%, with some changes in visible appearance.” for “dish.”
as §3
Example 4. The antifungal activity of a range of AITC vapor concentrations was tested against Pd in mandarins. All mandarins were wounded by puncturing with a screw and infected by dispensing 1000 Pd spores suspended in 10 μL of water in each wound. The fruit was then placed in an airtight container, a range of AITC volumes were disposed onto a Whatman filter paper disc, the disc was suspended in front of a battery-powered fan, and the container closed for 18 hours. The mandarins were then left at ambient temperature and high humidity for 6 days. The test groups were mandarins that were infected and untreated, and infected and treated with 62.5 μL 125 μL 250 μL and 500 μL on the filter paper disc. […]
Example 5. […] The test groups were then left at ambient temperature, high humidity, and assessed for Pd mold after 6 days. […]

The subject of a further series is grapes. Put plainly: Visible appearance of vapor-treated grapes. In kind it is in vivo, grape. As to the method:
Example 12. The antifungal activity of AITC and DADS vapor against Botrytis cinerea (Bc) in grapes was tested. All samples were wounded by making a 3 mm deep puncture in the skin. Samples were infected by dispensing 1000 Bc spores suspended in 10 μL of water in the wound. The test groups consisted of grapes that were: uninfected and untreated; infected and untreated; exposed to the vapor of 3 mL of AITC in a Petri dish for 72 hours; and exposed to the vapor of 3 mL of DADS in a Petri dish for 72 hours. FIG. 17 quantifies the infection results. […] Both AITC and DADS vapor were effective at controlling Bc mold. Treatment with AITC can potentially lead to changes in color or flavor of the grapes.

With `C=CCSSCC=C` [DADS, diallyl disulfide], in series [1] (Example 1, mandarins, 72 hours vapor of 3 mL in a Petri dish), the “reduction of the incidence of Pd mold compared to the untreated samples” value turned out to be 95.8%. Moreover, in series [1] (Example 1, mandarins, 72 hours vapor of 3 mL, imazalil 1 g/L dip), the “reduction of the incidence of Pd mold compared to imazalil treated samples” value came out at 19.1%. Moreover, the “reduction of the incidence of Pd mold compared to untreated/infected test group” value in series [1] (Example 2, mandarins, 72 hours vapor of 3 mL in a Petri dish) was 85%. Moreover, the “visible appearance of mandarins” value with mandarins (Example 1, 72 hours vapor of 3 mL) is recorded as “no visible degradation or discoloration”; in the series with mandarins (Example 2, 72 hours vapor of 3 mL), “No difference in appearance”. Also, the “visible appearance of grapes” value in the series on grapes (Example 12, vapor of 3 mL for 72 hours) is listed as “appeared unchanged”.

Turning to `C=CCN=C=S` [AITC, allyl isothiocyanate], the Pd infection entry in series [1] (Example 3, mandarins, vapor of 500 μL in a Petri dish for 72 hours) was “substantially prevented Pd infections”. Moreover, the “severity of Pd infection” value in series [1] (Example 4, 62.5 μL on filter paper disc, airtight container with fan, 18 hours, 6 days) is reported as “reduced the severity of infection relative to the untreated group”. Moreover, the “effect on Pd mold” value in series [1] (15 minute exposure) is listed as “little effect on Pd mold”; in series [1] (2 hour exposure) it was “substantially eliminated the mold”. Besides, the “fruit with spotting and darkening of the peel” value with mandarins (Example 5, 125 μL, 2 hour treatment) is recorded as 62.5%. Also, the “visible appearance of mandarins” value in the series with mandarins (in vivo) is “visibly darker than untreated fruit”. The “visible appearance of grapes” value in the series with grapes (in vivo) is “darkening of the fruit”.
